In patent US7820623B2 (priority 2006, dated 2010):
Bridge positions count the residues as written; N and C are the ends. Peptide text beside a SMILES is read from it.

Legend:
[1] = target: human Kv1.3 (Homo sapiens, UniProt P22001); format: cell-based; set-up: expressed in transfected cells
[2] = tested on: thapsigargin-induced IL-2 production in human whole blood; conditions: read-out: Analogue Activity (IC50) WB/IL-2
[3] = tested on: thapsigargin-induced IFN-g production in human whole blood; format: cell-based; conditions: read-out: Analogue Activity (IC50) WB/IFNg

Sequence of human Kv1.3 (P22001 whole entry): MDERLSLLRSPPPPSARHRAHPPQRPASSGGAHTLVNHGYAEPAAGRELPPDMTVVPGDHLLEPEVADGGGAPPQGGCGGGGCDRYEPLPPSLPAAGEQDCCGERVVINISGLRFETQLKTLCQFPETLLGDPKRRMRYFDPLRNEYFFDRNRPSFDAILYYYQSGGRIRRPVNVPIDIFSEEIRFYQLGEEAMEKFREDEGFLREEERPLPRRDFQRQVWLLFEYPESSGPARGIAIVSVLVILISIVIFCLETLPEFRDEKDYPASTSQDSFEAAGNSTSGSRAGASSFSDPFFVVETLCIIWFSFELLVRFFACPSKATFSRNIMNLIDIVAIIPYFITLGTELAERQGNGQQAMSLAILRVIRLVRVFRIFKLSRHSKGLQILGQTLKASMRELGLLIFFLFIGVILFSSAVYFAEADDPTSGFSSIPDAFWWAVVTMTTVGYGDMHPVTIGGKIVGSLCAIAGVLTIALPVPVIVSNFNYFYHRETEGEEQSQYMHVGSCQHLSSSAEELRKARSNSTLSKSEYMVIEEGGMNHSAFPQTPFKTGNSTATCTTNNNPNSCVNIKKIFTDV

Row | Structure (SMILES) | Kv1.3 Selectivity (= Kv1.1/Kv.3 IC50) [1] | IC50 [2] [nM] | IC50 [3] [nM] | IC50 ([1]; read-out: Kv1.3 (IC50)) [nM]
1 | CC[C@H](C)[C@@H]1NC(=O)[C@H](CCCCN)NC(=O)[C@@H](NC(=O)[C@H](CCCCN)NC(=O)[C@@H](NC(=O)[C@H](CC(N)=O)NC(=O)[C@@H](NC(=O)[C@@H](NC(=O)[C@@H](NC(=O)CN)C(C)C)[C@@H](C)CC)[C@@H](C)CC)C(C)C)CSSC[C@@H]2NC(=O)[C@H](C)NC(=O)CNC(=O)[C@H](Cc3ccccc3)NC(=O)[C@H](CCCNC(=N)N)NC(=O)[C@H](CCSC)NC(=O)CNC(=O)[C@H](C)NC(=O)[C@H](CCCCN)NC(=O)[C@H](CCCCN)NC(=O)[C@@H]3CSSC[C@@H](C(=O)N[C@H](C(=O)N4CCC[C@H]4C(=O)N[C@@H](CCCCN)C(=O)O)[C@@H](C)O)NC(=O)[C@H](Cc4c[nH]cn4)NC(=O)[C@H](CSSC[C@H](NC(=O)[C@H](CCC(N)=O)NC(=O)[C@H](CCCNC(=N)N)NC(=O)[C@H](CO)NC1=O)C(=O)N[C@@H](CC(C)C)C(=O)N[C@@H](CCC(=O)O)C(=O)N1CCC[C@H]1C(=O)N3)NC(=O)[C@H](CCCCN)NC(=O)CNC(=O)[C@H](CC(N)=O)NC(=O)[C@H](CCSC)NC2=O [K27A] (H-GVIINVKCKISRQCLEPCKKAGMRFGACMNGKCHCTPK-OH; disulfide 8-28, 14-33, 18-35) | 35 | 1.23 | 1.58 | –
2 | CC[C@H](C)[C@@H]1NC(=O)[C@H](CCCCN)NC(=O)[C@@H](NC(=O)[C@H](CCCCN)NC(=O)[C@@H](NC(=O)[C@H](CC(N)=O)NC(=O)[C@@H](NC(=O)[C@@H](NC(=O)[C@@H](NC(=O)CN)C(C)C)[C@@H](C)CC)[C@@H](C)CC)C(C)C)CSSC[C@@H]2NC(=O)[C@H](CCCCN)NC(=O)CNC(=O)[C@H](Cc3ccccc3)NC(=O)[C@H](CCCNC(=N)N)NC(=O)[C@H](CCSC)NC(=O)CNC(=O)[C@H](C)NC(=O)[C@H](CCCCN)NC(=O)[C@H](CCCCN)NC(=O)[C@@H]3CSSC[C@@H](C(=O)N[C@H](C(=O)N4CCC[C@H]4C(=O)N[C@@H](CCCCN)C(=O)O)[C@@H](C)O)NC(=O)[C@H](Cc4c[nH]cn4)NC(=O)[C@H](CSSC[C@H](NC(=O)[C@H](CCC(N)=O)NC(=O)[C@H](CCCNC(=N)N)NC(=O)[C@H](CO)NC1=O)C(=O)N[C@@H](CC(C)C)C(=O)N[C@@H](CCC(=O)O)C(=O)N1CCC[C@H]1C(=O)N3)NC(=O)[C@H](CCCCN)NC(=O)CNC(=O)[C@H](CC(N)=O)NC(=O)[C@H](C)NC2=O [M29A] (H-GVIINVKCKISRQCLEPCKKAGMRFGKCANGKCHCTPK-OH; disulfide 8-28, 14-33, 18-35) | 105 | 0.447 | 0.292 | 0.033
3 | CC[C@H](C)[C@@H]1NC(=O)[C@H](CCCCN)NC(=O)[C@@H](NC(=O)[C@H](CCCCN)NC(=O)[C@@H](NC(=O)[C@H](CC(N)=O)NC(=O)[C@@H](NC(=O)[C@@H](NC(=O)[C@@H](NC(=O)CN)C(C)C)[C@@H](C)CC)[C@@H](C)CC)C(C)C)CSSC[C@@H]2NC(=O)[C@H](CCCCN)NC(=O)CNC(=O)[C@H](Cc3ccccc3)NC(=O)[C@H](CCCNC(=N)N)NC(=O)[C@H](CCSC)NC(=O)CNC(=O)[C@H](C)NC(=O)[C@H](CCCCN)NC(=O)[C@H](CCCCN)NC(=O)[C@@H]3CSSC[C@@H](C(=O)N[C@H](C(=O)N4CCC[C@H]4C(=O)N[C@@H](CCCCN)C(=O)O)[C@@H](C)O)NC(=O)[C@H](C)NC(=O)[C@H](CSSC[C@H](NC(=O)[C@H](CCC(N)=O)NC(=O)[C@H](CCCNC(=N)N)NC(=O)[C@H](CO)NC1=O)C(=O)N[C@@H](CC(C)C)C(=O)N[C@@H](CCC(=O)O)C(=O)N1CCC[C@H]1C(=O)N3)NC(=O)[C@H](CCCCN)NC(=O)CNC(=O)[C@H](CC(N)=O)NC(=O)[C@H](CCSC)NC2=O [H34A] (H-GVIINVKCKISRQCLEPCKKAGMRFGKCMNGKCACTPK-OH; disulfide 8-28, 14-33, 18-35) | 797 | 0.0725 | 0.0573 | –
4 | CC[C@H](C)[C@@H]1NC(=O)[C@H](CCCCN)NC(=O)[C@@H](NC(=O)[C@H](CCCCN)NC(=O)[C@@H](NC(=O)[C@H](CC(N)=O)NC(=O)[C@@H](NC(=O)[C@@H](NC(=O)[C@@H](NC(=O)CN)C(C)C)[C@@H](C)CC)[C@@H](C)CC)C(C)C)CSSC[C@@H]2NC(=O)[C@H](CCCCN)NC(=O)CNC(=O)[C@H](Cc3ccccc3)NC(=O)[C@H](CCCNC(=N)N)NC(=O)[C@H](CCSC)NC(=O)CNC(=O)[C@H](C)NC(=O)[C@H](CCCCN)NC(=O)[C@H](CCCCN)NC(=O)[C@@H]3CSSC[C@@H](C(=O)N[C@H](C(=O)N4CCC[C@H]4C(=O)N[C@@H](CCCCN)C(=O)O)[C@@H](C)O)NC(=O)[C@H](CCC(=O)O)NC(=O)[C@H](CSSC[C@H](NC(=O)[C@H](CCC(N)=O)NC(=O)[C@H](CCCNC(=N)N)NC(=O)[C@H](CO)NC1=O)C(=O)N[C@@H](CC(C)C)C(=O)N[C@@H](CCC(=O)O)C(=O)N1CCC[C@H]1C(=O)N3)NC(=O)[C@H](CCCCN)NC(=O)CNC(=O)[C@H](CC(N)=O)NC(=O)[C@H](CCSC)NC2=O [H34E] (H-GVIINVKCKISRQCLEPCKKAGMRFGKCMNGKCECTPK-OH; disulfide 8-28, 14-33, 18-35) | 30 | 1.62 | 2.38 | –
5 | CC[C@H](C)[C@@H]1NC(=O)[C@H](CCCCN)NC(=O)[C@@H](NC(=O)[C@H](CCCCN)NC(=O)[C@@H](NC(=O)[C@H](CC(N)=O)NC(=O)[C@@H](NC(=O)[C@@H](NC(=O)[C@@H](NC(=O)CN)C(C)C)[C@@H](C)CC)[C@@H](C)CC)C(C)C)CSSC[C@@H]2NC(=O)[C@H](CCCCN)NC(=O)CNC(=O)[C@H](Cc3ccccc3)NC(=O)[C@H](CCCNC(=N)N)NC(=O)[C@H](CCSC)NC(=O)CNC(=O)[C@H](C)NC(=O)[C@H](CCCCN)NC(=O)[C@H](CCCCN)NC(=O)[C@@H]3CSSC[C@@H](C(=O)N[C@H](C(=O)N4CCC[C@H]4C(=O)N[C@@H](CCCCN)C(=O)O)[C@@H](C)O)NC(=O)[C@H](Cc4c[nH]cn4)NC(=O)[C@H](CSSC[C@H](NC(=O)[C@H](CCC(N)=O)NC(=O)[C@H](CCCNC(=N)N)NC(=O)[C@H](CO)NC1=O)C(=O)N[C@@H](CC(C)C)C(=O)N[C@@H](CCC(=O)O)C(=O)N1CCC[C@H]1C(=O)N3)NC(=O)[C@H](CCCCN)NC(=O)CNC(=O)[C@H](CC(N)=O)NC(=O)[C@H](CCCNC(=N)N)NC2=O [M29R] (H-GVIINVKCKISRQCLEPCKKAGMRFGKCRNGKCHCTPK-OH; disulfide 8-28, 14-33, 18-35) | 30 | 11.7 | 7.68 | –
6 | CC[C@H](C)[C@@H]1NC(=O)[C@H](CCCCN)NC(=O)[C@@H](NC(=O)[C@H](CCCCN)NC(=O)[C@@H](NC(=O)[C@H](CC(N)=O)NC(=O)[C@@H](NC(=O)[C@@H](NC(=O)[C@@H](NC(=O)CN)C(C)C)[C@@H](C)CC)[C@@H](C)CC)C(C)C)CSSC[C@@H]2NC(=O)[C@H](CCCCN)NC(=O)CNC(=O)[C@H](Cc3ccccc3)NC(=O)[C@H](CCCNC(=N)N)NC(=O)[C@H](CCSC)NC(=O)CNC(=O)[C@H](C)NC(=O)[C@H](CCCCN)NC(=O)[C@H](CCCCN)NC(=O)[C@@H]3CSSC[C@@H](C(=O)N[C@@H](CCC(=O)O)C(=O)N4CCC[C@H]4C(=O)N[C@@H](CCCCN)C(=O)O)NC(=O)[C@H](Cc4c[nH]cn4)NC(=O)[C@H](CSSC[C@H](NC(=O)[C@H](CCC(N)=O)NC(=O)[C@H](CCCNC(=N)N)NC(=O)[C@H](CO)NC1=O)C(=O)N[C@@H](CC(C)C)C(=O)N[C@@H](CCC(=O)O)C(=O)N1CCC[C@H]1C(=O)N3)NC(=O)[C@H](CCCCN)NC(=O)CNC(=O)[C@H](CC(N)=O)NC(=O)[C@H](CCSC)NC2=O [T36E] (H-GVIINVKCKISRQCLEPCKKAGMRFGKCMNGKCHCEPK-OH; disulfide 8-28, 14-33, 18-35) | 44 | 1.74 | 2.42 | –
7 | CC[C@H](C)[C@@H]1NC(=O)[C@H](CCCCN)NC(=O)[C@@H](NC(=O)[C@H](CCCCN)NC(=O)[C@@H](NC(=O)[C@H](CC(N)=O)NC(=O)[C@@H](NC(=O)[C@@H](NC(=O)[C@@H](NC(=O)CN)C(C)C)[C@@H](C)CC)[C@@H](C)CC)C(C)C)CSSC[C@@H]2NC(=O)[C@H](CCCCN)NC(=O)CNC(=O)[C@H](Cc3ccccc3)NC(=O)[C@H](CCCNC(=N)N)NC(=O)[C@H](CCSC)NC(=O)CNC(=O)[C@H](C)NC(=O)[C@H](CCCCN)NC(=O)[C@H](CCCCN)NC(=O)[C@@H]3CSSC[C@@H](C(=O)N[C@H](C(=O)N4CCC[C@H]4C(=O)N[C@@H](CCCCN)C(=O)O)[C@@H](C)O)NC(=O)[C@H](Cc4c[nH]cn4)NC(=O)[C@H](CSSC[C@H](NC(=O)[C@H](CCC(N)=O)NC(=O)[C@H](CCCNC(=N)N)NC(=O)[C@H](CO)NC1=O)C(=O)N[C@@H](CCC(=O)O)C(=O)N[C@@H](CCC(=O)O)C(=O)N1CCC[C@H]1C(=O)N3)NC(=O)[C@H](CCCCN)NC(=O)CNC(=O)[C@H](CC(N)=O)NC(=O)[C@H](CCSC)NC2=O [L15E] (H-GVIINVKCKISRQCEEPCKKAGMRFGKCMNGKCHCTPK-OH; disulfide 8-28, 14-33, 18-35) | 342 | 0.785 | 1.06 | –
8 | CC[C@H](C)[C@@H]1NC(=O)[C@H](CCCCN)NC(=O)[C@@H](NC(=O)[C@H](CCCCN)NC(=O)[C@@H](NC(=O)[C@H](CC(N)=O)NC(=O)[C@@H](NC(=O)[C@@H](NC(=O)[C@@H](NC(=O)CN)C(C)C)[C@@H](C)CC)[C@@H](C)CC)C(C)C)CSSC[C@@H]2NC(=O)[C@H](CCCCN)NC(=O)CNC(=O)[C@H](Cc3ccccc3)NC(=O)[C@H](CCCNC(=N)N)NC(=O)[C@H](CCSC)NC(=O)CNC(=O)[C@H](C)NC(=O)[C@H](CCCCN)NC(=O)[C@H](CCCCN)NC(=O)[C@@H]3CSSC[C@@H](C(=O)N[C@H](C(=O)N4CCC[C@H]4C(=O)N[C@@H](CCCCN)C(=O)O)[C@@H](C)O)NC(=O)[C@H](Cc4c[nH]cn4)NC(=O)[C@H](CSSC[C@H](NC(=O)[C@H](CCC(N)=O)NC(=O)[C@H](CCCNC(=N)N)NC(=O)[C@H](CCCNC(=N)N)NC1=O)C(=O)N[C@@H](CC(C)C)C(=O)N[C@@H](CCC(=O)O)C(=O)N1CCC[C@H]1C(=O)N3)NC(=O)[C@H](CCCCN)NC(=O)CNC(=O)[C@H](CC(N)=O)NC(=O)[C@H](CCSC)NC2=O [S11R] (H-GVIINVKCKIRRQCLEPCKKAGMRFGKCMNGKCHCTPK-OH; disulfide 8-28, 14-33, 18-35) | 228 | 2.12 | 4.07 | –
